Results reported in US11203592B2, “Inhibitors of indoleamine 2,3-dioxygenase and methods of their use” (BRISTOL-MYERS SQUIBB COMPANY, priority 2017, dated 2021).
pIC50: −log10 of the molar value.

Experiments:
[1] = molecular target: T1, indoleamine 2,3-dioxygenase (IDO) (Homo sapiens, UniProt P14902); assay: HeLa cell-based indoleamine 2,3-dioxygenase (IDO) assay, kynurenine production; conditions: HeLa cells, IFNγ 25 ng/mL, 48 hour incubation, kynurenine absorbance at 480 nm
T1 construct: endogenous in cells; host or cells: HeLa (ATCC CCL-2), induced with IFNγ at 25 ng/mL
Procedure: Assessment of Inhibitor Activity in HeLa Cell-Based Indoleamine 2,3-dioxygenase (IDO) Assay:
HeLa (ATCC® CCL-2) cells were obtained from the ATCC® and cultured in Dulbecco's Modified Eagle Medium supplemented with 4.5 g/L glucose, […] (#10-013-CV, Corning), 2 mM L-alanyl-L-glutamine dipeptide (#35050-061, Gibco), 100U/mL penicillin, 100 μg/mL streptomycin (#SV30010, HyClone) and 10% fetal bovine serum (#SH30071.03 HyClone). Cells were maintained in a humidified incubator at 37° C. in 5% CO2.
IDO activity was assessed as a function of kynurenine production as follows: HeLa cells were seeded in a 96-well culture plate at a density of 5,000 cells/well and allowed to equilibrate overnight. After 24 hours, the media was aspirated and replaced with media containing IFNγ (#285-IF/CF, R&D Systems) at a final concentration of 25 ng/mL. A serial dilution of each test compound was added to the cells in a total volume of 200 μL of culture medium. After a further 48 hour incubation, 170 μL of supernatant was transferred from each well to a fresh 96-well plate. 12.1 μL of 6.1N trichloroacetic acid (#T0699, Sigma-Aldrich) was added to each well and mixed, followed by incubation at 65° C. for 20 minutes to hydrolyze N-formylkynurenine, the product of indoleamine 2,3-dioxygenase, to kynurenine. The reaction mixture was then centrifuged for 10 mins at 500×g to sediment the precipitate. 100 μL of the supernatant was transferred from each well to a fresh 96-well plate. 100 μl of 2% (w/v) p-dimethylaminobenzaldehyde (#15647-7, Sigma-Aldrich) in acetic acid (#A6283, Sigma-Aldrich) was added to each well mixed and incubated at room temperature for 20 inns. Kynurenine concentrations were determined by measuring absorbance at 480 nm and calibrating against an L-kynurenine (#K8625, Sigma-Aldrich) standard curve using a SPECTRAMAX® M2e microplate reader (Molecular Devices). The percentage activity at each inhibitor concentration was determined and IC50 values assessed using nonlinear regression.

human IDO1 = molecular target: T2, human IDO1 (Homo sapiens, UniProt P14902); assay: human IDO1/HEK293 cell IDO inhibition assay; type: cell-based; conditions: HEK293 cells stably expressing human IDO1, 20 hours incubation, absorbance at 490 nm; read-out: IDO1 HEK Human IC50
T2 construct: expressed in transfected cells
Procedure: HEK293 cells were transfected with a pCDNA-based mammalian expression vector harboring human IDO1 cDNA (NM 002164.2) by electroporation. They were cultured in medium (DMEM with 10% FBS) containing 1 mg/ml G418 for two weeks. Clones of HEK293 cells that stably expressed human IDO1 protein were selected and expanded for IDO inhibition assay.
The human IDO1/HEK293 cells were seeded at 10,000 cells per 50 μL per well with RPMI/phenol red free media contains 10% FBS in a 384-well black wall clear bottom tissue culture plate (Matrix Technologies LLC) 100 nL of certain concentration of compound was then added to each well using ECHO liquid handling systems. The cells were incubated for 20 hours in 37° C. incubator with 5% CO2.
The compound treatments were stopped by adding trichloroacetic acid (Sigma-Aldrich) to a final concentration at 0.2%. The cell plate was further incubated at 50° C. for 30 minute. The equal volume supernatant (20 μL) and 0.2% (w/v) Ehrlich reagent (4-dimethylaminobenzaldehyde, Sigma-Aldrich) in glacial acetic acid were mixed in a new clear bottom 384-well plate. This plate was then incubated at room temperature for 30 minute. The absorbance at 490 nm was measured on Envision plate reader.
Compound IC50 values were calculated using the counts of 500 nM of a reference standard treatment as one hundred percent inhibition, and counts of no compound but DMSO treatment as zero percent inhibition.

T2 sequence (P14902 whole entry): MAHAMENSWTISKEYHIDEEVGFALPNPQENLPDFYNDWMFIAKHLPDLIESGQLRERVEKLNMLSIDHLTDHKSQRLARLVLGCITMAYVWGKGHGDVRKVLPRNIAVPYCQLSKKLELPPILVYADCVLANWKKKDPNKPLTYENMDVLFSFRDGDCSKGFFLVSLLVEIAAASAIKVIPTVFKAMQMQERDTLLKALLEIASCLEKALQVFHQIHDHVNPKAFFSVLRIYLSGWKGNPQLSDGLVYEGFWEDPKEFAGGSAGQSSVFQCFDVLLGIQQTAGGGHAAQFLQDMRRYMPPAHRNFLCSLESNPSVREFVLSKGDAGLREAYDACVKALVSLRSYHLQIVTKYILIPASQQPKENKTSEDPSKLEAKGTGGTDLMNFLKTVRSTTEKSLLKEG
T1 sequence (P14902 whole entry): as above

| pIC50 [1] | pIC50 (human IDO1) | SMILES |
| --- | --- | --- |
| 6.70 |  | CC(C(=O)NC12CC3CC(CC(C3)C1)C2)[C@H]1CC[C@@]2(CC1)OCc1ccccc12 (mixture of isomers) [Example 28, rac-N—((1R,3S)-Adamantan-1-yl)-2-((1R,4r)-3′H-spiro[cyclohexane-1,1′-isobenzofuran]-4-yl)propanamide] |
| 6.94 | 7.00 | O=C(C[C@H]1CC[C@@]2(CC1)OCc1ccccc12)Nc1ccc(Cl)cc1 [Example 1, N-(4-Chlorophenyl)-2-((1r,4r)-3′H-spiro[cyclohexane-1,1′-isobenzofuran]-4-yl)acetamide] |
| 6.72 |  | O=C(C[C@H]1CC[C@@]2(CC1)OCc1ccccc12)NC12CC3CC(CC(C3)C1)C2 [Example 2, N-((1R,3S)-Adamantan-1-yl)-2-((1R,4r)-3′H-spiro[cyclohexane-1,1′-isobenzofuran]-4-yl)acetamide] |
| 6.66 | 6.29 | O=C(C[C@H]1CC[C@]2(CC1)OCc1ccccc12)Nc1ccc(Cl)cc1 [Example 3, N-(4-Chlorophenyl)-2-((1s,4s)-3′H-spiro[cyclohexane-1,1′-isobenzofuran]-4-yl)acetamide] |
| 7.70 | 7.77 | C[C@H](C(=O)Nc1ccc(Cl)cc1)[C@H]1CC[C@@]2(CC1)COc1ccccc12 [Example 15, (S)—N-(4-Chlorophenyl)-2-((1'S,4′r)-2H-spiro[benzofuran-3,1′-cyclohexan]-4′-yl)propanamide] |
